In ChEMBL document CHEMBL3882738, “Dimethylarginine Dimethylaminohydrolase inhibitors and methods of use thereof” (2014):
pIC50: −log10 of the molar value. Activity calls are given as the source filed them. The calls are words filed in the database; no cut-off is given here.

What was measured:
[1] = target: T1, N(G),N(G)-dimethylarginine dimethylaminohydrolase 1 (Homo sapiens, UniProt O94760); experiment: Inhibition of recombinant human DDAH1 expressed in Escherichia coli BL21 Star (DE3) using ADMA as substrate assessed as decrease in citrulline production after 4 hrs by colorimetric method
T1 sequence (O94760 whole entry): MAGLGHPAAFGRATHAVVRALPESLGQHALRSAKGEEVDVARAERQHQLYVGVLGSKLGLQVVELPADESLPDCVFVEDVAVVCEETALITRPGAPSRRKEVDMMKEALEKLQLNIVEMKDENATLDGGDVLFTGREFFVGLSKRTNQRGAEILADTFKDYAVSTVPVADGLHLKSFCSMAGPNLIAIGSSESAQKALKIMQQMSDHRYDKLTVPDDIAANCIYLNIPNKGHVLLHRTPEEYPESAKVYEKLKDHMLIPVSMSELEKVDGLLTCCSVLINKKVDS

[2] = target: T1, N(G),N(G)-dimethylarginine dimethylaminohydrolase 1; experiment: Inhibition of recombinant human DDAH1 expressed in Escherichia coli BL21 Star (DE3) using ADMA as substrate assessed as decrease in citrulline production at 50 uM preincubated with protein followed by substrate addition by colorimetric method
[3] = target: T1, N(G),N(G)-dimethylarginine dimethylaminohydrolase 1; experiment: Inhibition of DDAH in human A549 cells assessed as decrease in serum-stimulated cell proliferation at 20 uM preincubated for 2 hrs followed by fetal bovine serum addition measured 24 hrs post compound treatment by BrdU incorporation assay; assay type: cell-based
[4] = target: T1, N(G),N(G)-dimethylarginine dimethylaminohydrolase 1; experiment: Inhibition of recombinant human DDAH1 expressed in Escherichia coli BL21 Star (DE3) using SMTC as substrate assessed as decrease in L-citrulline and methanethiol production at 50 uM by CPM-based fluorimetric assay
[5] = target: T1, N(G),N(G)-dimethylarginine dimethylaminohydrolase 1; experiment: Inhibition of DDAH in lung fibroblasts isolated from late stage idiopathic pulmonary fibrosis patient assessed as reduction of TGF-beta-induced acid-soluble collagen levels at 20 uM after 24 hrs by sircol collagen assay
[6] = target: T1, N(G),N(G)-dimethylarginine dimethylaminohydrolase 1; experiment: Inhibition of recombinant human DDAH1 expressed in Escherichia coli BL21 Star (DE3) using ADMA as substrate assessed as decrease in citrulline production at 50 uM after 4 hrs by colorimetric method
[7] = Cytotoxicity against human A549 cells up to 300 uM by lactate dehydrogenase release assay; assay type: cell-based
[8] = target: T1, N(G),N(G)-dimethylarginine dimethylaminohydrolase 1; experiment: Inhibition of DDAH in human A549 cells assessed as reduction of A23187-induced apoptosis by measuring […] in mono and oligo nucleosome content at 20 to 100 uM after 24 hrs; assay type: cell-based
[9] = target: T1, N(G),N(G)-dimethylarginine dimethylaminohydrolase 1; experiment: Reversible inhibition of recombinant human DDAH1 expressed in Escherichia coli BL21 Star (DE3) using SMTC as substrate assessed as decrease in L-citrulline and methanethiol production at 1 to 100 times IC50 preincubated for 1 hr followed by 100 fold dilution by CPM-based fluorimetric assay
[10] = target: T1, N(G),N(G)-dimethylarginine dimethylaminohydrolase 1; experiment: Inhibition of DDAH in human A549 cells assessed as decrease in serum-stimulated cell proliferation at 3 to 100 uM preincubated for 2 hrs followed by fetal bovine serum addition measured 24 hrs post compound treatment by BrdU incorporation assay; assay type: cell-based
[11] = target: T1, N(G),N(G)-dimethylarginine dimethylaminohydrolase 1; experiment: Inhibition of DDAH in lung fibroblasts isolated from late stage idiopathic pulmonary fibrosis patient assessed as reduction of TGF-beta-induced acid-soluble collagen levels at 100 uM after 24 hrs by sircol collagen assay
[12] = Cytotoxicity against mouse MLE12 cells up to 300 uM by lactate dehydrogenase release assay; assay type: cell-based
[13] = target: T1, N(G),N(G)-dimethylarginine dimethylaminohydrolase 1; experiment: Inhibition of DDAH in lung fibroblasts isolated from late stage idiopathic pulmonary fibrosis patient assessed as reduction of TGF-beta-induced acid-soluble collagen levels at 50 uM after 24 hrs by sircol collagen assay
[14] = target: N(G),N(G)-dimethylarginine dimethylaminohydrolase 1 (Mus musculus) (UniProt Q9CWS0); experiment: Inhibition of DDAH in mouse MLE12 cells assessed as decrease in serum-stimulated cell proliferation at 3 to 100 uM preincubated for 2 hrs followed by fetal bovine serum addition measured 24 hrs post compound treatment by BrdU incorporation assay; assay type: cell-based
N(G),N(G)-dimethylarginine dimethylaminohydrolase 1 (Mus musculus), sequence (Q9CWS0 whole entry): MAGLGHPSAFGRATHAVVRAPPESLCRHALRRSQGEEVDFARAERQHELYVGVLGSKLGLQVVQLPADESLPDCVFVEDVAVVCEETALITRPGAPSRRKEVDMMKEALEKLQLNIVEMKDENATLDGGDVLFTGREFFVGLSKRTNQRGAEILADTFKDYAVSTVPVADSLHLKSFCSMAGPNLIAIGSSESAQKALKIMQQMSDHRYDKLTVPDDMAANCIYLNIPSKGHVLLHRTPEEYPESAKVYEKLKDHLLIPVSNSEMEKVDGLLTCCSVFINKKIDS

[15] = target: T1, N(G),N(G)-dimethylarginine dimethylaminohydrolase 1; experiment: Inhibition of DDAH in human A549 cells assessed as reduction in intracellular nitric oxide levels at 10 to 100 uM after 24 hrs by Griess assay; assay type: cell-based
[16] = target: T1, N(G),N(G)-dimethylarginine dimethylaminohydrolase 1; experiment: Inhibition of DDAH in human A549 cells assessed as downregulation of iNOS expression at 50 to 100 uM after 24 hrs by Western blot method; assay type: cell-based
[17] = target: T1, N(G),N(G)-dimethylarginine dimethylaminohydrolase 1; experiment: Inhibition of DDAH in human A549 cells assessed as increase in intracellular ADMA levels at 10 to 100 uM after 24 hrs by ELISA relative to vehicle-treated control; assay type: cell-based
[18] = target: T1, N(G),N(G)-dimethylarginine dimethylaminohydrolase 1; experiment: Inhibition of recombinant human DDAH1 expressed in Escherichia coli BL21 Star (DE3) using SMTC as substrate assessed as decrease in L-citrulline and methanethiol production by CPM-based fluorimetric assay
[19] = target: Transforming growth factor beta (Homo sapiens) (UniProt P01137+P61812+P10600); experiment: Inhibition of TGF-beta-induced acid-soluble collagen levels in lung fibroblasts isolated from late stage idiopathic pulmonary fibrosis patient at 20 uM after 24 hrs by sircol collagen assay; assay type: protein assay
Transforming growth factor beta (Homo sapiens), sequence (P01137 whole entry, looked up): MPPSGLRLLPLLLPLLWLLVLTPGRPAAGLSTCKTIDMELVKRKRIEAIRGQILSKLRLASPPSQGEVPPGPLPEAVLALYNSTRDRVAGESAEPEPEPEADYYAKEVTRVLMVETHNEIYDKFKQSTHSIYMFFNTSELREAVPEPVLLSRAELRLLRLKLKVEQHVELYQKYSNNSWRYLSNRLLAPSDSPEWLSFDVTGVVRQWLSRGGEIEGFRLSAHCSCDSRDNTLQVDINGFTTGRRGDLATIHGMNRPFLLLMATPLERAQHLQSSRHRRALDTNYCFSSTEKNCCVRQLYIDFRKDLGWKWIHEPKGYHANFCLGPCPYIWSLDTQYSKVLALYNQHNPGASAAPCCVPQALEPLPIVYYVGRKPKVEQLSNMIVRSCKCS
Transforming growth factor beta (Homo sapiens), sequence (P10600 whole entry, looked up): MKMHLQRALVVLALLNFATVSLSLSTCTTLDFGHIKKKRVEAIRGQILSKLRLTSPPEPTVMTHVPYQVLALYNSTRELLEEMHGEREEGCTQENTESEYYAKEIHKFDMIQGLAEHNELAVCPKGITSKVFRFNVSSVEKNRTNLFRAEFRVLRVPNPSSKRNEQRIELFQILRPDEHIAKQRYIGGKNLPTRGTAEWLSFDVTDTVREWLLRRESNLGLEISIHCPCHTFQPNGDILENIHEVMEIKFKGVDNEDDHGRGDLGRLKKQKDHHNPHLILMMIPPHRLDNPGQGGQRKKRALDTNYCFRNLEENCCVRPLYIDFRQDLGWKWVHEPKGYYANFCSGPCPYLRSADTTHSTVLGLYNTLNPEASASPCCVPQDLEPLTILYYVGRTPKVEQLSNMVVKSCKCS
Transforming growth factor beta (Homo sapiens), sequence (P61812 whole entry, looked up): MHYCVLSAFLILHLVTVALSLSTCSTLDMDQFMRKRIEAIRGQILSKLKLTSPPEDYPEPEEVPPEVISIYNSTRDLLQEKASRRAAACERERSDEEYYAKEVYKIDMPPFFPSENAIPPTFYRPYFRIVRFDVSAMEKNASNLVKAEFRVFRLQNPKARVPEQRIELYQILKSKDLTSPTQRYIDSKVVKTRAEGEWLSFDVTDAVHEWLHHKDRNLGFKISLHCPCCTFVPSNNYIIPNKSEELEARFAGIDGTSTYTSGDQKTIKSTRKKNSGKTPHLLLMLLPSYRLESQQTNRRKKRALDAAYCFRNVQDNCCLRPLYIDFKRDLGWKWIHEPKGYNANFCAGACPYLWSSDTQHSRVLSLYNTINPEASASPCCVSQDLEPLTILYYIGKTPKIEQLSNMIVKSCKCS

[20] = target: T1, N(G),N(G)-dimethylarginine dimethylaminohydrolase 1; experiment: Inhibition of DDAH in fibroblasts isolated from chronic obstructive pulmonary disease patient assessed as upregulation of HO1 gene expression at 5 to 50 uM after 24 hrs relative to vehicle-treated control
[21] = target: T1, N(G),N(G)-dimethylarginine dimethylaminohydrolase 1; experiment: Inhibition of DDAH in fibroblasts isolated from idiopathic pulmonary fibrosis patient assessed as downregulation of TGFBR2 gene expression at 5 to 50 uM relative to vehicle-treated control
[22] = target: T1, N(G),N(G)-dimethylarginine dimethylaminohydrolase 1; experiment: Inhibition of DDAH in fibroblasts isolated from idiopathic pulmonary fibrosis patient assessed as downregulation of BMPR2 gene expression at 5 to 50 uM relative to vehicle-treated control
[23] = target: T1, N(G),N(G)-dimethylarginine dimethylaminohydrolase 1; experiment: Inhibition of DDAH in fibroblasts isolated from idiopathic pulmonary fibrosis patient assessed as downregulation of ITGA5 gene expression at 5 to 50 uM relative to vehicle-treated control
[24] = target: T1, N(G),N(G)-dimethylarginine dimethylaminohydrolase 1; experiment: Inhibition of DDAH in bronchial epithelial cells isolated from chronic obstructive pulmonary disease patient assessed as upregulation of HO1 gene expression at 5 to 50 uM after 24 hrs relative to vehicle-treated control; assay type: cell-based; details: Epithelial cell
[25] = target: T1, N(G),N(G)-dimethylarginine dimethylaminohydrolase 1; experiment: Inhibition of DDAH in fibroblasts isolated from idiopathic pulmonary fibrosis patient assessed as downregulation of BMPR1B gene expression at 5 to 50 uM relative to vehicle-treated control
[26] = target: T1, N(G),N(G)-dimethylarginine dimethylaminohydrolase 1; experiment: Inhibition of DDAH in fibroblasts isolated from idiopathic pulmonary fibrosis patient assessed as downregulation of ITGB3 gene expression at 5 to 50 uM relative to vehicle-treated control
[27] = target: T1, N(G),N(G)-dimethylarginine dimethylaminohydrolase 1; experiment: Inhibition of DDAH in fibroblasts isolated from idiopathic pulmonary fibrosis patient assessed as downregulation of BMP4 gene expression at 5 to 50 uM relative to vehicle-treated control
[28] = target: T1, N(G),N(G)-dimethylarginine dimethylaminohydrolase 1; experiment: Inhibition of DDAH in fibroblasts isolated from idiopathic pulmonary fibrosis patient assessed as downregulation of ITGB8 gene expression at 5 to 50 uM relative to vehicle-treated control
[29] = target: T1, N(G),N(G)-dimethylarginine dimethylaminohydrolase 1; experiment: Inhibition of DDAH in fibroblasts isolated from idiopathic pulmonary fibrosis patient assessed as downregulation of TGFB1 gene expression at 5 to 50 uM relative to vehicle-treated control
[30] = target: T1, N(G),N(G)-dimethylarginine dimethylaminohydrolase 1; experiment: Inhibition of DDAH in fibroblasts isolated from late idiopathic pulmonary fibrosis patient assessed as upregulation of HO1 gene expression at 50 uM relative to control
[31] = target: T1, N(G),N(G)-dimethylarginine dimethylaminohydrolase 1; experiment: Inhibition of DDAH in fibroblasts isolated from idiopathic pulmonary fibrosis patient assessed as downregulation of ITGB1 gene expression at 5 to 50 uM relative to vehicle-treated control
[32] = target: T1, N(G),N(G)-dimethylarginine dimethylaminohydrolase 1; experiment: Inhibition of DDAH in fibroblasts isolated from idiopathic pulmonary fibrosis patient assessed as downregulation of MMP8 gene expression at 5 to 50 uM relative to vehicle-treated control
[33] = target: T1, N(G),N(G)-dimethylarginine dimethylaminohydrolase 1; experiment: Inhibition of DDAH in fibroblasts isolated from idiopathic pulmonary fibrosis patient assessed as downregulation of ITGB6 gene expression at 5 to 50 uM relative to vehicle-treated control
[34] = target: T1, N(G),N(G)-dimethylarginine dimethylaminohydrolase 1; experiment: Inhibition of DDAH in fibroblasts isolated from idiopathic pulmonary fibrosis patient assessed as downregulation of ITGB5 gene expression at 5 to 50 uM relative to vehicle-treated control
[35] = target: T1, N(G),N(G)-dimethylarginine dimethylaminohydrolase 1; experiment: Inhibition of DDAH in bronchial epithelial cells isolated from chronic obstructive pulmonary disease patient assessed as downregulation of TNF-alpha gene expression at 5 to 50 uM after 24 hrs relative to vehicle-treated control; assay type: cell-based; details: Epithelial cell
[36] = target: T1, N(G),N(G)-dimethylarginine dimethylaminohydrolase 1; experiment: Inhibition of DDAH in fibroblasts isolated from early idiopathic pulmonary fibrosis patient assessed as upregulation of HO1 gene expression at 50 uM relative to control
[37] = target: T1, N(G),N(G)-dimethylarginine dimethylaminohydrolase 1; experiment: Inhibition of DDAH in fibroblasts isolated from idiopathic pulmonary fibrosis patient assessed as downregulation of SMAD6 gene expression at 5 to 50 uM relative to vehicle-treated control
[38] = target: T1, N(G),N(G)-dimethylarginine dimethylaminohydrolase 1; experiment: Inhibition of DDAH in HMEC1 assessed as increase in intracellular ADMA levels at 20 uM after 24 hrs by ELISA relative to vehicle-treated control; assay type: cell-based
[39] = target: T1, N(G),N(G)-dimethylarginine dimethylaminohydrolase 1; experiment: Inhibition of DDAH in fibroblasts isolated from idiopathic pulmonary fibrosis patient assessed as downregulation of TGFBR1 gene expression at 5 to 50 uM relative to vehicle-treated control
[40] = target: T1, N(G),N(G)-dimethylarginine dimethylaminohydrolase 1; experiment: Inhibition of DDAH in bronchial epithelial cells isolated from chronic obstructive pulmonary disease patient assessed as downregulation of TRPV1 gene expression at 5 to 50 uM after 24 hrs relative to vehicle-treated control; assay type: cell-based; details: Epithelial cell
[41] = target: T1, N(G),N(G)-dimethylarginine dimethylaminohydrolase 1; experiment: Inhibition of DDAH in fibroblasts isolated from idiopathic pulmonary fibrosis patient assessed as downregulation of […] gene expression at 5 to 50 uM relative to vehicle-treated control
[42] = target: T1, N(G),N(G)-dimethylarginine dimethylaminohydrolase 1; experiment: Inhibition of DDAH in fibroblasts isolated from idiopathic pulmonary fibrosis patient assessed as downregulation of BMP2 gene expression at 5 to 50 uM relative to vehicle-treated control
[43] = target: T1, N(G),N(G)-dimethylarginine dimethylaminohydrolase 1; details: A549, 50 to 100 uM
Description: Inhibition of DDAH in human A549 cells assessed as decrease in serum-stimulated cell proliferation at 50 to 100 uM preincubated for 2 hrs followed by fetal bovine serum addition measured 24 hrs post compound treatment by BrdU incorporation assay

[44] = target: N(G),N(G)-dimethylarginine dimethylaminohydrolase 1 (Mus musculus) (UniProt Q9CWS0); experiment: Inhibition of DDAH in mouse MLE12 cells assessed as decrease in serum-stimulated cell proliferation at 50 to 100 uM preincubated for 2 hrs followed by fetal bovine serum addition measured 24 hrs post compound treatment by BrdU incorporation assay; assay type: cell-based

COc1ccnc(C[S+]([O-])c2nc3cc(OC(F)F)ccc3[nH]2)c1OC (stereo not drawn) [PANTOPRAZOLE]
pIC50 [1]: 4.20

Cc1c(OCC(F)(F)F)ccnc1C[S+]([O-])c1nc2ccccc2[nH]1 (stereo not drawn)
inhibition [2]: Active
inhibition [3]: Active
inhibition [1]: Dose-dependent effect
inhibition [4]: Active
inhibition [5]: Active
inhibition [6]: Active

COc1ccc2[nH]c([S+]([O-])Cc3ncc(C)c(OC)c3C)nc2n1 (stereo not drawn)
inhibition [2]: Active
inhibition [1]: Dose-dependent effect
inhibition [6]: Active

COc1ccc2[nH]c([S+]([O-])Cc3ncc(C)c(OC)c3C)nc2c1 (stereo not drawn) [OMEPRAZOLE]
Activity [7]: Non-Toxic
inhibition [8]: Active
inhibition [2]: Active
inhibition [9]: Active
inhibition [10]: Active
inhibition [11]: Active
Activity [12]: Non-Toxic
inhibition [13]: Active
inhibition [14]: Active
pIC50 [1]: 4.07 to 4.70
inhibition [1]: Dose-dependent effect
inhibition [15]: Active
inhibition [4]: Active
inhibition [16]: Active
inhibition [17]: Active
inhibition [6]: Active

C/N=c1\nc(-c2ccccc2)n(-c2ccccc2)s1
pIC50 [18]: 4.88

O=c1c2ccccc2[se]n1-c1ccccc1
inhibition [18]: Active

4-[sequence] ACID
inhibition [18]: Active

Cc1cccc(-c2nn(C(=S)Nc3ccccc3)cc2-c2ccnc3ccccc23)n1
inhibition [19]: Active

CC1=CC(=O)C=C(C)C1=NS(=O)(=O)c1ccccc1
pIC50 [18]: 5.04

COc1ccc2[nH]c([S@@+]([O-])Cc3ncc(C)c(OC)c3C)nc2c1
fold change (FC) [20]: 10
inhibition [21]: Active
inhibition [22]: Active
inhibition [2]: Active
inhibition [23]: Active
fold change (FC) [24]: 4
inhibition [25]: Active
inhibition [26]: Active
inhibition [27]: Active
inhibition [3]: Active
inhibition [28]: Active
inhibition [29]: Active
fold change (FC) [30]: 2.5
inhibition [31]: Active
inhibition [32]: Active
inhibition [33]: Active
inhibition [4]: Active
inhibition [34]: Active
inhibition [35]: Active
fold change (FC) [36]: 5
inhibition [37]: Active
inhibition [38]: 37%
inhibition [39]: Active
inhibition [6]: Active
inhibition [40]: Active
inhibition [41]: Active
inhibition [42]: Active

COCCNC(=N)NCCC[C@H](N)C(=O)O
inhibition [43]: Active
inhibition [13]: Active
inhibition [44]: Active
inhibition [38]: 68%

COCCCOc1ccnc(C[S+]([O-])c2nc3ccccc3[nH]2)c1C (stereo not drawn)
inhibition [2]: Active
inhibition [3]: Active
inhibition [4]: Active
inhibition [6]: Active

CC1=CC(=O)C(Cl)=C(C)/C1=N/S(=O)(=O)c1ccc(C)cc1
pIC50 [18]: 5.26

PHENYLMERCURIC ACETATE
pIC50 [18]: > 6.11

N=C1Sc2ccccc2C2=NCCCN12
inhibition [4]: Active
inhibition [38]: 84%
inhibition [18]: Dose-dependent effect
inhibition [6]: Active

CP(=O)(O)c1nc2ccccc2s1
pIC50 [1]: 5.00
